Where two headings read alike, the source gives them in different places.
How the values were obtained:
[1] = target: T1, [V390I/Y410E/E274V]-CfEcR (Choristoneura fumiferana, UniProt O77240); type: cell-based; settings: 3T3 Cells; for RMFI (relative maximum fold induction): relative to GS-E ligand
T1 construct: assay construct b835
Protocol: (§1) Cellular gene switch assays were performed by transiently transfecting the following constructs in mouse embryonic fibroblast cells (NIH3T3). The wild-type D, E and F domains from Choristoneura fumiferana EcR or its V390I/Y410E/E274V mutant were fused to GAL4-DBD and placed under the control of the CMV promoter in the pBIND vector (Promega Corporation, Madison, Wis., USA). The DEF domains of EcRs shown were amplified using primers designed based on 20-25 nt sequences at the 5′ and 3′ ends. Restriction enzyme sites EcoR I/BamH I and Xba I were added to 5′ and 3′ primers respectively. The PCR products were digested with appropriate restriction enzymes and cloned into pBIND vector. The EcR LBDs cloned into pBIND vector were verified by sequencing. A chimeric RXR from Homo sapiens RXRP and Locusta migratoria RXR, fused to VP16-AD and placed under the control of an SV40e promoter, was constructed as previously described (Kumar P & Katakam A in Gene Transfer, Friedmann T and Rossi J, eds, pp. 643-651 (2007), Cold Spring Harbor Laboratory Press, Cold Spring Harbor, N.Y.). The inducible luciferase reporter plasmid pFRLuc (Stratagene Cloning Systems, La Jolla, Calif., USA), contains five copies of the GAL4 response element and a synthetic minimal promoter.
(§2) NIH3T3 cells were maintained at 37′C and 5% CO2 in Dulbecco's modified Eagle's medium (DMEM) supplemented with 10% bovine calf serum, both obtained from Mediatech Inc., Manassas, Va. Cells were planted in a 96-well plate at a density of 2,500 cells/well in 50 μL of growth medium. The following day cells were first treated with 35 μL of serum-free DMEM containing dimethyl sulfoxide (DMSO; control) or a DMSO solution containing ligand. Cells were then transfected with 15 μl of serum-free DMEM containing 0.04 μg of EcR construct, 0.04 ug of RXR construct, and 0.16 μg of luciferase reporter construct per well, using SuperFect™ transfection reagent (Qiagen Inc., Valencia, Calif., USA) according to the manufacturer's instructions. Ligands were tested at 8 doses from 0.01-33 μM and the final DMSO concentration was 0.33% in both control and treatment wells. After a 48 hour post-treatment and transfection incubation, the cells were assayed for luciferase activity using the Bright-Glo™ Luciferase Assay System (Promega Corporation, Madison, Wis., USA) following the manufacturer's instructions. EC50 values were measured minimally in duplicate.
(§3) Luciferase reporter gene expression was measured 48 h after cell treatment using Bright-Glo™ Luciferase Assay System from Promega (E2650). Luminescence was detected at room temperature using a Dynex MLX microtiter plate luminometer.
(§4) Each assay was conducted in two separate wells, and the two values were averaged. Fold inductions were calculated by dividing relative light units (“RLU”) in ligand treated cells with RLU in DMSO treated cells. EC50s were calculated from dose response data using a three-parameter logistic model. Relative Max FI was determined as the maximum fold induction of the tested ligand (an embodiment of the invention) observed at any concentration relative to the maximum fold induction of GS™-E ligand (3,5-dimethyl-benzoic acid N-tert-butyl-N′-(2-ethyl-3-methoxy-benzoyl)-hydrazide) observed at any concentration.

[2] = target: wild-type Choristoneura fumiferana EcR (D, E and F domains) (Choristoneura fumiferana, UniProt O77240); type: cell-based; settings: WT-CtEcR, 3T3 Cells; for RMFI (relative maximum fold induction): relative to GS-E ligand
Protocol: as §1, §2, §3, §4

Row | Structure (SMILES) | EC50 ([1]; R) | RMFI (relative maximum fold induction) ([1]; R) | EC50 ([2]; R) | RMFI (relative maximum fold induction) ([2]; R) | EC50 ([1]; S) | RMFI (relative maximum fold induction) ([1]; S) | EC50 ([2]; S) | RMFI (relative maximum fold induction) ([2]; S)
1 | CCC[C@@H](N(NC(=O)c1ccc(Cl)nc1)C(=O)c1cc(C)cc(C)c1)C(C)(C)C [Example 28, (R)-3,5-Dimethyl-benzoic acid N-(1-tert-butyl-butyl)-N′-(6-chloro-pyridine-3-carbonyl)-hydrazide] | ~20 nM | 0.78 | 243 nM | 0.38 |  |  |  | 
2 | CCC[C@H](N(NC(=O)c1ccccc1)C(=O)c1cc(C)cc(C)c1)C(C)(C)C [Example 32] |  |  |  |  | 267 nM | 0.38 | ~3300 nM | 0.19
3 | CCC[C@H](N(NC(=O)c1ccccc1C)C(=O)c1cc(C)cc(C)c1)C(C)(C)C [Example 33, (S)-3,5-Dimethyl-benzoic acid N-(1-tert-butyl-butyl)-N′-(2-methyl-benzoyl)-hydrazide] |  |  |  |  | ~400 nM | 0.48 | ~3300 nM | 0.20
4 | CCC[C@H](N(NC(=O)c1ccccc1F)C(=O)c1cc(C)cc(C)c1)C(C)(C)C [Example 34, (S)-3,5-Dimethyl-benzoic acid N-(1-tert-butyl-butyl)-N′-(2-fluoro-benzoyl)-hydrazide] |  |  |  |  | 86 nM | 0.64 | 529 nM | 0.41
5 | CCC[C@H](N(NC(=O)c1ccccc1Cl)C(=O)c1cc(C)cc(C)c1)C(C)(C)C [Example 35, (S)-3,5-Dimethyl-benzoic acid N-(1-tert-butyl-butyl)-N′-(2-chloro-benzoyl)-hydrazide] |  |  |  |  | ~20 nM | 0.77 | ~1000 nM | 0.44
6 | CCC[C@H](N(NC(=O)c1ccccc1Br)C(=O)c1cc(C)cc(C)c1)C(C)(C)C [Example 36, (S)-3,5-Dimethyl-benzoic acid N′-(2-bromo-benzoyl)-N-(1-tert-butyl-butyl)-hydrazide] |  |  |  |  | 433 nM | 0.36 | ~3300 nM | 0.11
7 | CCC[C@H](N(NC(=O)c1cccc(C)c1)C(=O)c1cc(C)cc(C)c1)C(C)(C)C [Example 37, (S)-3,5-Dimethyl-benzoic acid N-(1-tert-butyl-butyl)-N′-(3-methyl-benzoyl)-hydrazide] |  |  |  |  | 292 nM | 0.47 | ~3300 nM | 0.22
8 | CCC[C@H](N(NC(=O)c1ccc(C)cc1)C(=O)c1cc(C)cc(C)c1)C(C)(C)C [Example 38, (S)-3,5-Dimethyl-benzoic acid N-(1-tert-butyl-butyl)-N′-(4-methyl-benzoyl)-hydrazide] |  |  |  |  | 341 nM | 0.44 | 2170 nM | 0.25
9 | CCC[C@H](N(NC(=O)c1ccc(CC)cc1)C(=O)c1cc(C)cc(C)c1)C(C)(C)C [Example 39, (S)-3,5-Dimethyl-benzoic acid N-(1-tert-butyl-butyl)-N′-(4-ethyl-benzoyl)-hydrazide] |  |  |  |  | ~20 nM | 0.70 | 418 nM | 0.29
10 | CCC[C@H](N(NC(=O)c1c(F)cccc1F)C(=O)c1cc(C)cc(C)c1)C(C)(C)C [Example 40, (S)-3,5-Dimethyl-benzoic acid N-(1-tert-butyl-butyl)-N′-(2,6-difluoro-benzoyl)-hydrazide] |  |  |  |  | ~20 nM | 0.69 | ~1000 nM | 0.39
11 | CCC[C@H](N(NC(=O)c1c(Cl)cccc1Cl)C(=O)c1cc(C)cc(C)c1)C(C)(C)C [Example 41, (S)-3,5-Dimethyl-benzoic acid N-(1-tert-butyl-butyl)-N′-(2,6-dichloro-benzoyl)-hydrazide] |  |  |  |  | ~700 nM | 0.62 | ~3300 nM | 0.10
12 | CCC[C@H](N(NC(=O)c1cc(OC)c(C)c(OC)c1)C(=O)c1cc(C)cc(C)c1)C(C)(C)C [Example 42, (S)-3,5-Dimethyl-benzoic acid N-(1-tert-butyl-butyl)-N′-(3,5-dimethoxy-4-methyl-benzoyl)-hydrazide] |  |  |  |  | ~7000 nM | 0.08 | > 10000 nM | 
13 | CCC[C@H](N(NC(=O)c1cccs1)C(=O)c1cc(C)cc(C)c1)C(C)(C)C [Example 43, (S)-3,5-Dimethyl-benzoic acid N-(1-tert-butyl-butyl)-N′-(thiophene-2-carbonyl)-hydrazide] |  |  |  |  | 1060 nM | 0.52 | ~10000 nM | 0.07
14 | CCC[C@H](N(NC(=O)c1cc(C)oc1C)C(=O)c1cc(C)cc(C)c1)C(C)(C)C [Example 44, (S)-3,5-Dimethyl-benzoic acid N-(1-tert-butyl-butyl)-N′-(2,5-dimethyl-furan-3-carbonyl)-hydrazide] |  |  |  |  | ~2000 nM | 0.49 | 7060 nM | 0.32
15 | CCC[C@H](N(NC(=O)c1cccnc1Cl)C(=O)c1cc(C)cc(C)c1)C(C)(C)C [Example 45, (S)-3,5-Dimethylbenzoic acid N-(1-tert-butyl-butyl)-N′-(2-chloro-pyridine-3-carbonyl)-hydrazide] |  |  |  |  | 1470 nM | 0.80 | ~20000 nM | 0.05
16 | CCC[C@H](N(NC(=O)c1cccc(OC)c1C)C(=O)c1cc(C)cc(C)c1)C(C)(C)C [Example 47, (S)-3,5-Dimethyl-benzoic acid N-(1-tert-butyl-butyl)-N′-(3-methoxy-2-methyl-benzoyl)-hydrazide] |  |  |  |  | 56.3 nM | 0.57 | ~200 nM | 0.49
17 | CCC[C@H](N(NC(=O)OC(C)(C)C)C(=O)c1cc(C)cc(C)c1)C(C)(C)C [Example 48, (S)—N′-(1-tert-Butyl-butyl)-N′-(3,5-dimethyl-benzoyl)-hydrazinecarboxylic Acid tert-butyl Ester] |  |  |  |  | 6600 nM | 0.20 | > 33000 nM | 0.03
18 | CCC[C@@H](N(NC(=O)OC(C)(C)C)C(=O)c1cc(C)cc(C)c1)C(C)(C)C [Example 49, (R)—N′-(1-tert-Butyl-butyl)-N′-(3,5-dimethyl-benzoyl)-hydrazinecarboxylic acid tert-butyl Ester] | 2750 nM | 0.59 | 15100 nM | 0.15 |  |  |  | 
19 | CCC[C@@H](N(NC(=O)c1cccc(OC)c1C)C(=O)c1cc(OC)c(C)c(OC)c1)C(C)(C)C [Example 51, (R)-3,5-Dimethoxy-4-methyl-benzoic acid N-(1-tert-butyl-butyl)-N′-(3-methoxy-2-methyl-benzoyl)-hydrazide] | 0.56 nM | 0.81 | ~70 nM | 1.00 |  |  |  | 

From patent publication US20200270225A1, “Chiral Diacylhydrazine Ligands for Modulating the Expression of Exogenous Genes via an Ecdysone Receptor Complex” (Intrexon Corporation, priority 2007, published 2020)
